Results as given in patent publication US12552757B2, “NRF2-activating compound” (SENJU PHARMACEUTICAL CO., LTD., priority 2019, dated 2026).

What was measured:
[1] = target: T1, binding between NRF2 and KEAP1 (Homo sapiens, UniProt Q14145); assay: Measurement 1 of Nrf2 activating action (binding assay): BRET assay of inhibition of the binding between NRF2 and KEAP1; conditions: 50% binding inhibitory concentration, NanoLuc-NRF2 / KEAP1-HaloTag cell lysates
T1 construct: expressed in transfected cells; host or cells: HCE-T cells; each protein was expressed separately, and the two cell lysates were mixed in the well
T1 sequence (Q14145 whole entry): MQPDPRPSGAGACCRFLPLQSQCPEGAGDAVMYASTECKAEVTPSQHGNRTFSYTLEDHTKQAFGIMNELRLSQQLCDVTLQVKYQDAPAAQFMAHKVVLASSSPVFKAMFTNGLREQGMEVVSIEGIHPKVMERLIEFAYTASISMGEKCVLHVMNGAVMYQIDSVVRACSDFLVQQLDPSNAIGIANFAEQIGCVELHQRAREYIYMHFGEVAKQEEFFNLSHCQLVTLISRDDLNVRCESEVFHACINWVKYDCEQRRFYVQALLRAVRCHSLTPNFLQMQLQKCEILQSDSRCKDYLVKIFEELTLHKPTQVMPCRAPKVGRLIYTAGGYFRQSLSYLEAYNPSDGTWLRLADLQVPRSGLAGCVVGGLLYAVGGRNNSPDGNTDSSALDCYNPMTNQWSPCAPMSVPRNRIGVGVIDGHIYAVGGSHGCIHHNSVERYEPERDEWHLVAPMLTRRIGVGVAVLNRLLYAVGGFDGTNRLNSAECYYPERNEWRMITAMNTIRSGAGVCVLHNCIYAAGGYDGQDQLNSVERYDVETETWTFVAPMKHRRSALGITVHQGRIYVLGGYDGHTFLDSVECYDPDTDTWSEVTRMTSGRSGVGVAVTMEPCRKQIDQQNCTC
Description: Compounds 1 to 53 produced in the Examples were used as test substances.
The inhibitory activity of each compound on the binding between NRF2 and KEAP1 was measured by bioluminescence resonance energy transfer (BRET) assay. A plasmid having human NRF2 (Original Clone ID: ha01449s1) sequence fused with NanoLuc (19 kDa, Promega) at the N-terminal was transduced into HCE-T cells using FuGENE HD (Promega). 48 hours after transduction, the cell lysate was collected and used as an NRF2-expressing cell lysate. A plasmid having human KEAP1 (Original Clone ID: cs00328) sequence fused with HaloTag (33 kDa, Promega) at the C-terminal was transduced into HCE-T cells using FuGENE HD (Promega). After 24 hours, HaloTag Nano BRET 618 Ligand (Promega) was added to the medium. The cell lysate cultured for 24 hours after the addition was used as a KEAP1-expressing cell lysate.
The NRF2-expressing cell lysate and the KEAP1-expressing cell lysate were adjusted so that the luminescence and fluorescence intensities per well were constant. Tables 1 and 2 show the formulation of each reaction solution.
Each test substance at a concentration 100 times higher than the test concentration was dissolved in dimethylsulfoxide for adjustment. 49 μL of KEAP1 solution was added to a 96-well polystyrene microplate (FALCON) to which 1 μL of each test substance solution was added, followed by incubation for 15 minutes. Then, 50 μL of NRF2 solution was added to the above solution, followed by incubation for 1 hour. To measure the binding between NRF2 and KEAP1, NanoBRET Nano-Glo Substrate (Promega) diluted with Opti-Mem (Thermo Fisher Scientific) was added, followed by shaking for 30 seconds. Then, luminescence and fluorescence were measured using the GloMax Discover System (Promega). A 495-nm short pass filter and a 600-nm long pass filter were respectively used to measure donor and acceptor emission values. A value obtained by dividing the acceptor emission value by the donor emission value was regarded as BRET value. A BRET value when the compound was not added, and a BRET value when the KEAP1 solution was not added were respectively used as binding rates of 100% and 0%, and the binding rate when the compound was added was calculated. Further, using this binding rate, the 50% binding inhibitory activity concentration (IC50) was calculated from the following formula: IC50(M)=10^(LOG(A/B)×(50−C)/(D−C)+LOG(B)) • A: higher concentration out of 2 close concentrations across the inhibition rate of 50% • B: lower concentration out of 2 close concentrations across the inhibition rate of 50% • C: inhibition rate at B • D: inhibition rate at A

[2] = Measurement of metabolic stability in human liver microsomes; format: in vitro ADME; conditions: residual ratio of test compound after 30 minutes at 37° C. with human liver microsome, LC/MS/MS
Description: 1 mmol/L DMSO solutions of the compounds produced in the Examples were prepared. Each of the 1 mmol/L DMSO solutions was diluted with acetonitrile to 10 μmol/L, and then diluted with a 6.5 mmol/L Q-NADPH solution to 200 nmol/L. 50 μL of each solution was added to the reaction group and the non-reaction group. 50 μL of a 0.2 mg protein/mL human liver microsome (Mixed Gender, Pool of 50 livers; XenoTech, LLC) solution was added to the reaction group, followed by incubation at 37° C. for 30 minutes with shaking. After 400 μL of methanol was added to the non-reaction group, 50 μL of a 0.2 mg protein/mL human liver microsome solution was added to adjust the formulation. After incubation in the reaction group, 400 μL of methanol was added to stop the reaction. The samples of the reaction group and non-reaction group were allowed to stand at −20° C. for about 30 minutes, followed by centrifugation at 4° C. at 3000 rpm for about 10 minutes. The supernatant was analyzed using LC/MS/MS, and the residual ratio of the test compound was calculated from the peak area value of the test compound using the following formula. The measurement was carried out using the following devices: HPLC system: LC-20A-Series High Performance Liquid Chromatograph (Shimadzu Corporation) and mass spectrometer: API 4000 (AB Sciex Pte. Ltd.), or using equivalent devices. Residual ratio (%)=(peak area value of test compound in reaction group/peak area value of test compound in non-reaction group)×100 Results

Row | SMILES | IC50 [1] [nM] | Metabolic stability* [2] [%]
1 | CC[C@@H]1CN(Cc2cc(C(CC(=O)O)c3c(C)c(C(C)=O)c(C)n3C)ccc2C)S(=O)(=O)c2ccccc2O1 (stereo partly drawn) [Compound 35, 3-(4-acetyl-1,3,5-trimethyl-1H-pyrrol-2-yl)-3-(3-{[(R)-4-ethyl-1,1-dioxide-3,4-dihydro-2H-benzo[b][1,4,5]oxathiazepin-2-yl]methyl}-4-methylphenyl) propanoic acid] | 3.9 | 39
2 | CC[C@@H]1CN(Cc2cc(C(c3ccc(C(C)=O)s3)C(C)(C)C(=O)O)ccc2C)S(=O)(=O)c2ccccc2O1 (stereo partly drawn) [Compound 6, 3-(5-acetylthiophen-2-yl)-3-(3-{[(R)-4-ethyl-1,1-dioxide-3,4-dihydro-2H-benzo[b][1,4,5]oxathiazepin-2-yl]methyl}-4-methylphenyl)-2,2-dimethylpropanoic acid] |  | 32
3 | CC[C@@H]1CN(Cc2cc(C(CC(=O)O)c3ccc(C#N)s3)ccc2C)S(=O)(=O)c2ccccc2O1 (stereo partly drawn) [Compound 19, 3-(5-cyanothiophen-2-yl)-3-(3-{[(R)-4-ethyl-1,1-dioxide-3,4-dihydro-2H-benzo[b][1,4,5]oxathiazepin-2-yl]methyl}-4-methylphenyl)propanoic acid] |  | 23
4 | CC[C@@H]1CN(Cc2cc(C(CC(=O)O)c3cc(F)c(C(C)=O)s3)ccc2C)S(=O)(=O)c2ccccc2O1 (stereo partly drawn) [Compound 8, 3-(5-acetyl-4-fluorothiophen-2-yl)-3-(3-{[(R)-4-ethyl-1,1-dioxide-3,4-dihydro-2H-benzo[b][1,4,5]oxathiazepin-2-yl]methyl}-4-methylphenyl)propanoic acid] |  | 36
5 | CC(=O)c1ccc(C(c2ccc(C)c(CN3C[C@@H](C)Oc4ccccc4S3(=O)=O)c2)C(C)(C)C(=O)O)s1 (stereo partly drawn) [Compound 12, 3-(5-acetylthiophen-2-yl)-2,2-dimethyl-3-(4-methyl-3-{[(R)-4-methyl-1,1-dioxide-3,4-dihydro-2H-benzo[b][1,4,5]oxathiazepin-2-yl]methyl}phenyl)propanoic acid] |  | 56
6 | CC[C@@H]1CN(Cc2cc(C(CC(=O)O)c3cncs3)ccc2C)S(=O)(=O)c2ccccc2O1 (stereo partly drawn) [Compound 39, 3-(3-{[(R)-4-ethyl-1,1-dioxide-3,4-dihydro-2H-benzo[b][1,4,5]oxathiazepin-2-yl]methyl}-4-methylphenyl)-3-(thiazol-5-yl)propanoic acid] | 3.8 | 89
7 | CC[C@@H]1CN(Cc2cc(C(c3cc(F)c(C(C)=O)s3)C(C)C(=O)O)ccc2C)S(=O)(=O)c2cnccc2O1 (stereo partly drawn) [Compound 52, 3-(5-acetyl-4-fluorothiophen-2-yl)-3-(3-{[(R)-4-ethyl-1,1-dioxide-3,4-dihydro-2H-pyrido[4,3-b][1,4,5]oxathiazepin-2-yl]methyl}-4-methylphenyl)-2-methylpropanoic acid] |  | 53
8 | CC[C@@H]1CN(Cc2cc(C(c3ccc(C(C)=O)s3)C(C)(C)C(=O)O)ccc2C)S(=O)(=O)c2c(F)cccc2O1 (stereo partly drawn) [Compound 9, 3-(5-acetylthiophen-2-yl)-3-(3-{[(R)-4-ethyl-9-fluoro-1,1-dioxide-3,4-dihydro-2H-benzo[b][1,4,5]oxathiazepin-2-yl]methyl}-4-methylphenyl)-2,2-dimethylpropanoic acid] |  | 38
9 | CC[C@@H]1CN(Cc2cc(C(CC(=O)O)c3ccc(C(=O)NC)s3)ccc2C)S(=O)(=O)c2ccccc2O1 (stereo partly drawn) [Compound 21, 3-(3-{[(R)-4-ethyl-1,1-dioxide-3,4-dihydro-2H-benzo[b][1,4,5]oxathiazepin-2-yl]methyl}-4-methylphenyl)-3-[5-(methylcarbamoyl)thiophen-2-yl]propanoic acid] |  | 74
10 | CC[C@@H]1CN(Cc2cc(C(CC(=O)O)c3sc(C(C)=O)cc3C)ccc2C)S(=O)(=O)c2ccccc2O1 (stereo partly drawn) [Compound 14, 3-(5-acetyl-3-methylthiophen-2-yl)-3-(3-{[(R)-4-ethyl-1,1-dioxide-3,4-dihydro-2H-benzo[b][1,4,5]oxathiazepin-2-yl]methyl}-4-methylphenyl)propanoic acid] |  | 25
11 | CC[C@@H]1CN(Cc2cc(C(CC(=O)O)c3csc(C(C)=O)c3)ccc2C)S(=O)(=O)c2ccccc2O1 (stereo partly drawn) [Compound 15, 3-(5-acetylthiophen-3-yl)-3-(3-{[(R)-4-ethyl-1,1-dioxide-3,4-dihydro-2H-benzo[b][1,4,5]oxathiazepin-2-yl]methyl}-4-methylphenyl)propanoic acid] |  | 47
12 | CC[C@@H]1CN(Cc2cc(C(CC(=O)O)c3cc(C(C)=O)cs3)ccc2C)S(=O)(=O)c2ccccc2O1 (stereo partly drawn) [Compound 10, 3-(4-acetylthiophen-2-yl)-3-(3-{[(R)-4-ethyl-1,1-dioxide-3,4-dihydro-2H-benzo[b][1,4,5]oxathiazepin-2-yl]methyl}-4-methylphenyl)propanoic acid] |  | 39
13 | CC[C@@H]1CN(Cc2cc(C(CC(=O)O)c3ccc(C(C)=O)s3)ccc2C)S(=O)(=O)c2ccccc2O1 (stereo partly drawn) [Compound 5, 3-(5-acetylthiophen-2-yl)-3-(3-{[(R)-4-ethyl-1,1-dioxide-3,4-dihydro-2H-benzo[b][1,4,5]oxathiazepin-2-yl]methyl}-4-methylphenyl)propanoic acid] |  | 53
14 | CC[C@@H]1CN(Cc2cc(C(CC(=O)O)c3cccs3)ccc2C)S(=O)(=O)c2ccccc2O1 (stereo partly drawn) [Compound 17, 3-(3-{[(R)-4-ethyl-1,1-dioxide-3,4-dihydro-2H-benzo[b][1,4,5]oxathiazepin-2-yl]methyl}-4-methylphenyl)-3-(thiophen-2-yl)propanoic acid] |  | 36
15 | CC[C@@H]1CN(Cc2cc(C(CC(=O)O)c3cc(C)c(C(C)=O)s3)ccc2C)S(=O)(=O)c2ccccc2O1 (stereo partly drawn) [Compound 7, 3-(5-acetyl-4-methylthiophen-2-yl)-3-(3-{[(R)-4-ethyl-1,1-dioxide-3,4-dihydro-2H-benzo[b][1,4,5]oxathiazepin-2-yl]methyl}-4-methylphenyl)propanoic acid] |  | 30
16 | CC[C@@H]1CN(Cc2cc(C(c3cc(F)c(C(C)=O)s3)C(C)(C)C(=O)O)ccc2C)S(=O)(=O)c2ccccc2O1 (stereo partly drawn) [Compound 11, 3-(5-acetyl-4-fluorothiophen-2-yl)-3-(3-{[(R)-4-ethyl-1,1-dioxide-3,4-dihydro-2H-benzo[b][1,4,5]oxathiazepin-2-yl]methyl}-4-methylphenyl)-2,2-dimethylpropanoic acid] |  | 27
17 | CC[C@@H]1CN(Cc2cc(C(CC(=O)O)c3csc(C(=O)NC)c3)ccc2C)S(=O)(=O)c2ccccc2O1 (stereo partly drawn) [Compound 22, 3-(3-{[(R)-4-ethyl-1,1-dioxide-3,4-dihydro-2H-benzo[b][1,4,5]oxathiazepin-2-yl]methyl}-4-methylphenyl)-3-[5-(methylcarbamoyl)thiophen-3-yl]propanoic acid] |  | 77
18 | CC[C@@H]1CN(Cc2cc(C(CC(=O)O)c3ccc(C(N)=O)s3)ccc2C)S(=O)(=O)c2ccccc2O1 (stereo partly drawn) [Compound 23, 3-(5-carbamoylthiophen-2-yl)-3-(3-{[(R)-4-ethyl-1,1-dioxide-3,4-dihydro-2H-benzo[b][1,4,5]oxathiazepin-2-yl]methyl}-4-methylphenyl)propanoic acid] |  | 75
